The test system of one data set is PGE2 levels in kidney. Description: Wild-type mice based air-pouch model of inflammation (carrageenan), PGE2 by ELISA. The settings on record: for PGE2 levels in mice (kidney): 24 hours, vs vehicle. For orientation: In an ELISA, binding on a coated surface is turned into a signal by an enzyme label.
A further data set concerns the target T1, human mPGES-1 (Homo sapiens, UniProt O14684).
T1 construct: made in house; host or cells: FreeStyle 293-F cells, mPGES-1/pcDNA3 construct, crude microsomal preparation
T1 sequence (O14684 1-152): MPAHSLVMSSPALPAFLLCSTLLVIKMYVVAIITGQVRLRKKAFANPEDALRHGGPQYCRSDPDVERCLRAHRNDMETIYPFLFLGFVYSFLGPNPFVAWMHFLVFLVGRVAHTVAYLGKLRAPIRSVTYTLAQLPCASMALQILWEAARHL
Briefly: Activity assay using recombinant human mPGES-1 (PGE2 enzyme immunoassay). Format: biochemical. The protocol:
Our protocols for the protein preparation and in vitro activity assays were the same as described in previous reports[39],[41]–[43]. […] For the structure-activity relationship (SAR), we first investigated the impact of substitution on the central benzene ring on the inhibitory potency. […] The length of the alkoxy side chain was also inspected in compounds 4b and 6.
Purity was determined by HPLC (Waters 1525 Binary HPLC pump, Waters 2487 Dual λ Absorbance Detector, and Waters 717plus Autosampler, Milford, MA) at λ of […] using acetonitrile and 0.1% […]
TFA (70:30) as mobile phase.
(§1) 3. In vitro experimental tests
(§2) Preparation of mPGES-1 enzymes. Cloning of mPGES-1 and the protein preparation were described in our previous reports.15 Briefly, FreeStyle Max Expression system was used to express wild -type human and mouse mPGES-1 enzymes separately. FreeStyle 293-F cells were cultured following manufacturer’s manual in FreeStyle 293 expression medium on orbit rotate shaker in 8% CO 2 incubator at 37 °C. Cells were transfected with 1.5 µg/mL of mPGES-1/pcDNA3 construct using FreeStyle Max reagent at a cell density of 1 × 106 for 2 days. Transfected cells were collected, washed, and sonicated in TSES buffer (15 mM Tris-HCl, pH 8.0 plus 0.25 M sucrose, 0.1 mM EDTA and 1 mM DTT) on ice. The broken cells were first centrifuged at 12,500 × g for 10 min. The supernatant was further centrifuged at 105,000 × g for 1 hr at 4 °C. The pellet was washed and homogenized in PBS buffer. The crude microsomal mPGES -1 preparations were aliquoted and stored at -80 °C before use.
(§3) PGH2 (stored in dry ice). […] After 1
(§4) Following the formation of […]

Data set [1] relates to mice. Briefly: Acute toxicity/safety testing in mice after PO administration.
Description: (§5) Animals. Wild-type CD-1 mice (28-35 g) were ordered from Harlan (Indianapolis, IN), and housed
(§6) for a week prior to the experimental studies. All animals were allowed ad libitum access to food and water
(§7) and maintained on a 12 h light/12 h dark cycle, with the lights on at 8:00 am at a room temperature of 21–
(§8) 22 °C. Experiments were performed in a same colony room in accordance with the Guide for the Care and
(§9) Use of Laboratory Animals as adopted and promulgated by the National Institutes of Health. The animal
(§10) protocol was approved by the IACUC (Institutional Animal Care and Use Committee) at the University
(§11) Preparation of pictures during acute toxicity testing. Mice were divided into three groups and
(§12) treated with oral administration of a single dose of vehicle (Wesson vegetable oil, Memphis, TN), 4b (250
(§13) mg/mL in Wesson vegetable oil at the dose of 1 g/kg), and celecoxib (12.5 mg/mL in Wesson vegetable
The target of data set [2] is T2, mouse mPGES-1 (Mus musculus, UniProt Q9JM51).
T2 construct: made in house; host or cells: FreeStyle 293-F cells, mPGES-1/pcDNA3 construct, crude microsomal preparation
T2 sequence (Q9JM51 1-153): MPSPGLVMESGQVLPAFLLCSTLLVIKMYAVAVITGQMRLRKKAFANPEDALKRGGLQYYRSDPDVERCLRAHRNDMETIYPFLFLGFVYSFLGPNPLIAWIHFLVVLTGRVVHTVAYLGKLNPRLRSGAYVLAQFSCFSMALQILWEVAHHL
Briefly: Activity assay using recombinant mouse mPGES-1 (PGE2 enzyme immunoassay). Format: biochemical.
From the text: Our protocols for the protein preparation and in vitro activity assays were the same as described in previous reports[39],[41]–[43]. […] For the structure-activity relationship (SAR), we first investigated the impact of substitution on the central benzene ring on the inhibitory potency. […] The central benzene rings of 4i was originated from salicylaldehydes with chlorine substituted on 5-position. […] The length of the alkoxy side chain was also inspected in compounds 4b and 6.
as §1, §2, §3, §4

The test system of another data set is rat enzyme (mPGES-1). The settings on record: cited from earlier work.
Data set [3] has as its target T2, mouse mPGES-1. Conditions: cited from earlier work.
Data set [4] deals with mice. The settings on record: mouse, in vivo, po, 50 mg/kg.
Description: as §5, §6, §7, §8, §9, §10, §11, §12, §13
The mark [5] stands for this setting: IC50 (nM) against mPGES-1, Mouse mPGES-1, Mean ± SD of measurements in triplicate.

Read-outs that look alike come from different tables or passages of the source.

The term IC50 denotes the concentration that gives 50% inhibition.

Consider `O=C1NC(=O)C(=Cc2ccc(OCCCCC3CCCCC3)c(Cl)c2)C(=O)N1` [Compound 4b], for which the “PGE2 levels in mice (kidney)” value was “significantly decreased” with PGE2 levels in kidney (PO, 5 mg/kg single dose); “significantly decreased” in the data set on PGE2 levels in kidney (PO, 10 mg/kg single dose); “significantly decreased” with PGE2 levels in kidney (SC, 0.1 mg/kg single dose); “significantly decreased” with PGE2 levels in kidney (SC, 1 mg/kg single dose); “significantly decreased” with PGE2 levels in kidney (SC, 10 mg/kg single dose). In the data set on PGE2 levels in kidney (inferred from PO activity in mice), the oral bioavailability entry is “orally bioavailable”. For the same molecule, the IC50 on human mPGES-1 turned out to be 33 ± 3 nM; at mouse mPGES-1 [2] (setting [5]), 157 ± 31 nM. Moreover, in the data set on mice [1] (24 hr after PO, 1 g/kg in oil), the “bleeding spots on the inner side of stomach samples” value is recorded as “did not find any bleeding spot”. In addition, in the data set with mice [1] (PO, high dose up to 1 g/kg, observation for 14 days), the “toxic signs in mice” value was “did not cause any toxic sign”.

Take `O=C1NC(=O)C(=Cc2cc(Cl)ccc2OCCCCC2CCCCC2)C(=O)N1` [Compound 4i]: the IC50 was 87 ± 27 nM on human mPGES-1, 19100 ± 3490 nM at mouse mPGES-1 [2] (setting [5]) and > 10000 nM at mouse mPGES-1 [2] (IC50 against the mouse enzyme).

Turning to `O=C1NC(=O)C(=Cc2ccc(OCCCC3CCCCC3)c(Cl)c2)C(=O)N1` [Compound 6], the IC50 on human mPGES-1 was 69 ± 16 nM; at mouse mPGES-1 [2] (setting [5]) it was 292 ± 47 nM.

Consider `N#Cc1cccc(C#N)c1-c1nc2c3ccc(Cl)cc3c3ccccc3c2[nH]1` [MF63, 2-(6-chloro-1H-phenanthro[9,10-d]imidazol-2-yl)-isophthalonitrile], for which the “activity against the rat enzyme, previously reported” value with rat enzyme (mPGES-1) is “without significant activity”. For the same molecule, at mouse mPGES-1 [3], the “activity against the mouse enzyme, previously reported” value is given as “without significant activity”. The “inhibition against mouse mPGES-1 at 10 µM” value at mouse mPGES-1 [2] (10 µM) is on record as “no significant inhibition”.

`CC(C)c1ccc2c(c1)c(SC(C)(C)C)c(CC(C)(C)C(=O)O)n2Cc1ccc(Cl)cc1` [MK-886, reference compound]: the “inhibition of mouse mPGES-1” value on mouse mPGES-1 [2] (concentration not given) is “without significant inhibition”.

As for `Cc1ccc(-c2cc(C(F)(F)F)nn2-c2ccc(S(N)(=O)=O)cc2)cc1` [celecoxib], in the data set on mice [4], the “bleeding spots on the inner side of stomach samples” value is recorded as “at least one bleeding spot”; the “finding at gastric mucosa” value is listed as “bleeding ulcer was observed”; the toxicity in mice result is “very toxic for stomach and other issues of mice”.
